Reference: ChEMBL document CHEMBL1152002, “Synthesis of inhibitors of -1,3-fucosyltransferase” (Bioorg Med Chem Lett, 1997)

What was measured:
[1] = Compound was tested for the inhibition of Fucosyltransferase 4 alpha 1,3 at 2 uM GDP-fucose
[2] = Compound was tested for the inhibition of Fucosyltransferase 4 alpha 1,3 at 8.5 uM GDP-fucose

SMILES | IC50 [1] | IC50 [2]
C[C@H]1[C@@H](O)[C@H](O)[C@H](O)CN1CCCO[C@@H]1O[C@@H](CO)[C@H](O)[C@H](O)[C@@H]1O | – | > 500 µM
C[C@@H]1NC[C@@H](O)[C@H](O)[C@@H]1O [DEOXYFUCONOJIRIMYCIN] | – | 3500 µM

Stronger by IC50 [2], values ahead:

IC50 [1] | IC50 [2] | SMILES
– | 233 µM | C[C@H]1[C@@H](O)[C@H](O)[C@H](O)CN1CCCCO[C@@H]1O[C@@H](CO)[C@H](O)[C@H](O)[C@@H]1O
50 µM | 81 µM | C[C@H]1[C@@H](O)[C@H](O)[C@H](O)CN1Cc1ccccc1O[C@@H]1O[C@@H](CO)[C@H](O)[C@H](O)[C@@H]1O
– | 5 µM | Nc1nc2c(ncn2[C@@H]2O[C@H](COP(=O)(O)OP(=O)(O)O)[C@@H](O)[C@H]2O)c(=O)[nH]1
